{"source": "patent US9278991B2", "about": "“Anhydrous polymorphs of [(2R,3S,4R,5R)-5-(6-(cyclopentylamino)-9H-purin-9-yl)-3,4-dihydroxytetrahydrofuran-2-yl)} methyl nitrate and processes of preparation thereof” (Inotek Pharmaceuticals Corporation, priority 2012, dated 2016)", "assay_type_in_all_cases": "physicochemical", "key": {"[1]": {"assay": "Storage of aqueous suspension ocular formulation containing Compound A in the A1 polymorph at 2-8° C", "protocol": "When the aqueous suspension ocular formulation containing Compound A in the A1 polymorph is stored at 2-8° C., a temperature required to limit decomposition of Compound A over long term storage, the habit of the suspended particles changes slowly over a period of 6 to 12 months. During this time the small irregular particles of suspended drug change to rod-like habits, with many particles having a length along the longest dimension over 100 microns."}, "[2]": {"assay": "Long term stability and particle size growth of cured (A2) aqueous formulation lots at 5 and 25 degrees Celsius", "conditions": "aqueous suspension, 6 month period at either 5° C. or 25° C.", "protocol": "(§1) The particle size analyses were performed on a Cilas 1180 Particle Size Analyzer. The parameters used were liquid mode, sample refractive index=1.62 (determined using Cargille immersion oils), liquid refractive index=1.333 (value for water), 30 second measurement, 180 rpm stifling, 120 rpm pump circulation, no sonication, 5 repeat measurements.\nA batch of sterile material of Compound A was prepared as described above under the “Synthesis of Compound A”. The resulting Compound A material was then sterilized with gamma irradiation at up to 40 kGray and then formulated into the following aqueous formulations: […]\nVarious concentrations of Compound A formulation lots were prepared from 0.152, 0.30, 0.61, 0.91, 2.42, 0.46, 0.76%, W/V to provide for the ability to deliver different levels of Compound A per drop of formulation. For example one drop of the 0.152%, W/V of compound A would deliver 50 mcg per drop, 0.30%, W/V would deliver 100 mcg per drop, right through to 0.76% W/V delivering 250 mcg per drop. The formulation lots were then heated to undergo the curing step and convert the A1 polymorph form of Compound A to the A2 polymorph form of Compound A. The curing step was undertaken by placing the formulation lots at 40 degrees C. for 48 hours and then reverting the formulations lots to the desired longer term storage conditions for stability studies. […]"}, "[3]": {"assay": "Curing (ripening) of Compound A aqueous suspension at 40 degrees C: conversion of form A1 to A2, followed by particle size, XRPD and microphotography", "protocol": "XRPD patterns were obtained using a high-throughput XRPD set-up. The plates were mounted on a Bruker GADDS diffractometer equipped with a Hi-Star area detector. The XRPD platform was calibrated using Silver Behenate for the long d-spacings and Corundum for the short d-spacings.\nData collection was carried out at room temperature using monochromatic CuKα radiation in the 2-theta region between 1.5 degrees and 41.5 degrees, which is the most distinctive part of the XRPD pattern between the polymorph forms. The diffraction pattern of each well was collected in 2 theta ranges (1.5 degrees≦2 theta≦21.5 degrees for the first frame, and 19.5 degrees≦2 theta≦41.5 degrees for the second) with an exposure time of 30 seconds for each frame. No background subtraction or curve smoothing was applied to the XRPD patterns. The carrier material used during XRPD analysis was transparent to X-rays and contributed only slightly to the background.\nAs described above the Form A1 can be obtained predominantly via recrystallization from ethanol or under slow evaporation conditions. It has also been established that ripening or curing of Compound A particles suspended in an aqueous suspension formulated for ocular delivery at 40 degrees C. for a relatively short period of time formed polymorph form A2 from polymorph form A1. The aqueous suspension samples were kept at 40 degrees C. for up to 108 hours and monitored by particle size measurement, XRPD and microphotography. […] XRPD analyses indicated a change in polymorph content from about 74% A1 to 26% A2 at time zero to 0% A1 to 100% A2 at 108 hours at 40 degrees C. […] Also, habit changes coupled with A2 growth were reflected in the XRPD patterns and could be monitored by a difference in selected peak intensities from planes within the crystal lattice perpendicular to the c axis that change in intensity as the habit of the crystal changes.\nas §1"}}, "data": [{"compound": "O=[N+]([O-])OC[C@H]1O[C@@H](n2cnc3c(NC4CCCC4)ncnc32)[C@H](O)[C@@H]1O", "note": "[Form A1]", "values": [{"measurement": "resuspendability by sonication and shaking", "setting": "[1]; aqueous suspension after habit change at 2-8° C", "result": "much more difficult to resuspend"}, {"measurement": "particle length along the longest dimension (many particles)", "setting": "[1]; aqueous suspension stored at 2-8° C, 6 to 12 months", "result": "over 100 microns"}]}, {"compound": "O=[N+]([O-])OC[C@H]1O[C@@H](n2cnc3c(NC4CCCC4)ncnc32)[C@H](O)[C@@H]1O", "note": "[Form A2]", "values": [{"measurement": "changes to particle habit, size or polymorph content on storage", "setting": "[2]", "result": "limit any further changes"}]}, {"compound": "O=[N+]([O-])OC[C@H]1O[C@@H](n2cnc3c(NC4CCCC4)ncnc32)[C@H](O)[C@@H]1O", "note": "[Compound A, [2R,3S,4R,5R)-5-(6-(cyclopentylamino)-9H-purin-9-yl)-3,4-dihydroxytetrahydrofuran-2-yl)] methyl nitrate]", "values": [{"measurement": "average particle size change", "setting": "[3]; 40 degrees C, after 15 hours to 108 hours", "result": "remained effectively constant"}, {"measurement": "time over which XRPD peak intensity differences (crystal habit) changed", "setting": "[3]; 40 degrees C, constant thereafter", "result": "up to 9 hours"}, {"measurement": "average particle size change", "setting": "[3]; 40 degrees C, over 15 hours", "result": "increased significantly"}, {"measurement": "polymorph content A1 (XRPD)", "setting": "[3]; 108 hours at 40 degrees C", "result": 0, "unit": "%"}, {"measurement": "polymorph content A2 (XRPD)", "setting": "[3]; 108 hours at 40 degrees C", "result": 100, "unit": "%"}, {"measurement": "polymorph content A1 (XRPD)", "setting": "[3]; time zero", "result": "about 74%"}, {"measurement": "polymorph content A2 (XRPD)", "setting": "[3]; time zero", "result": "~26", "unit": "%"}]}]}
